Legend:
Format in all cases: biochemical
MMP-2 = MMP-2 (Homo sapiens, UniProt P08253); conditions: read-out: IC50 MMP-2 (FRET assay)
MMP-9 = MMP-9 (Homo sapiens, UniProt P14780); conditions: read-out: IC50 MMP-9 (FRET assay)
MMP-1 = MMP-1 (Homo sapiens, UniProt P03956); conditions: read-out: IC50 MMP-1 (FRET assay)
BaLF = BaLF (Bacillus anthracis, UniProt P15917); conditions: read-out: IC50 BaLF FRET
BoNT/B LC = BoNT/B LC (Clostridium botulinum, UniProt P10844); conditions: read-out: IC50 BoNT/B LC FRET
BoNT/A LC = BoNT/A LC (Clostridium botulinum, UniProt P0DPI0)
Sequence of BoNT/A LC (P0DPI0 2-448 limits assumed): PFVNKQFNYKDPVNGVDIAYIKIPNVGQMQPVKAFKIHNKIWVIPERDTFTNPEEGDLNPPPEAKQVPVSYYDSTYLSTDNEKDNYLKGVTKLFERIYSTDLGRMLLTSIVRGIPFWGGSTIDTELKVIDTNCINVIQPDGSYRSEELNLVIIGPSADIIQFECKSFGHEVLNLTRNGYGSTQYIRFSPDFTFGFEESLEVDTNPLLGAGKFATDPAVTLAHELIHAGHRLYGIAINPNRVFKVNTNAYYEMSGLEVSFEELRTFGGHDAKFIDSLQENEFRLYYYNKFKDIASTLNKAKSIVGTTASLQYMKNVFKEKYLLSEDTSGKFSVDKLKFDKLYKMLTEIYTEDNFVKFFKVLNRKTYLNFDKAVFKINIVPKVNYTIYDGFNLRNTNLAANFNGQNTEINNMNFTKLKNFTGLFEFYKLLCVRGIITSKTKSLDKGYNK

Sequence of MMP-2 (P08253 110-660): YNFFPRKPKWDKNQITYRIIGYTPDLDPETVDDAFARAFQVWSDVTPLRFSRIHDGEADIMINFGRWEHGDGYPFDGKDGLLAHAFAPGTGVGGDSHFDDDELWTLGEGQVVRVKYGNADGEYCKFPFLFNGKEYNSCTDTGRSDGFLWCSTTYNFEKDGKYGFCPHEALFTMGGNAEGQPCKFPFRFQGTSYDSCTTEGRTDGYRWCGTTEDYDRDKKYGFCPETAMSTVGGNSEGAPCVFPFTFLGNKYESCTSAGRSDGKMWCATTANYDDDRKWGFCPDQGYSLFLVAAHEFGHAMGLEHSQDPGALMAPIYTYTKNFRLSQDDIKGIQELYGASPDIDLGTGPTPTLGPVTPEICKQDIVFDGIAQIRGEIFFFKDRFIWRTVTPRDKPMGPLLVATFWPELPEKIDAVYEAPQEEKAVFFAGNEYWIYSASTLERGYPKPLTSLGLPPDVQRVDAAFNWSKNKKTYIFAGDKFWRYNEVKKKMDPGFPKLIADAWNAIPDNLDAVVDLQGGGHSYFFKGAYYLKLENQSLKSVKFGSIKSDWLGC
Sequence of BoNT/B LC (P10844 2-441 limits assumed): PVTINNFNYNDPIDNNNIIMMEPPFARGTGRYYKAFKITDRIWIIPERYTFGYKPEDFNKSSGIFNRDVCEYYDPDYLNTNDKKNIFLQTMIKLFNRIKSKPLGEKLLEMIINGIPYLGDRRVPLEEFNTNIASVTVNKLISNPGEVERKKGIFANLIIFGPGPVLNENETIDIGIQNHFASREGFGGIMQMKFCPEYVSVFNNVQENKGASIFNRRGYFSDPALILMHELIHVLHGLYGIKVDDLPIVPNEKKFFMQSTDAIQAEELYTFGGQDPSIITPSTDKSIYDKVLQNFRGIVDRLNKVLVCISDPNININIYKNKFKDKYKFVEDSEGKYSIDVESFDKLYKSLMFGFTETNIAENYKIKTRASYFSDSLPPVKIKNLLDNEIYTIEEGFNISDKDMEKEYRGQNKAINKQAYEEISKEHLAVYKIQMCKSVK
Sequence of MMP-1 (P03956 100-469): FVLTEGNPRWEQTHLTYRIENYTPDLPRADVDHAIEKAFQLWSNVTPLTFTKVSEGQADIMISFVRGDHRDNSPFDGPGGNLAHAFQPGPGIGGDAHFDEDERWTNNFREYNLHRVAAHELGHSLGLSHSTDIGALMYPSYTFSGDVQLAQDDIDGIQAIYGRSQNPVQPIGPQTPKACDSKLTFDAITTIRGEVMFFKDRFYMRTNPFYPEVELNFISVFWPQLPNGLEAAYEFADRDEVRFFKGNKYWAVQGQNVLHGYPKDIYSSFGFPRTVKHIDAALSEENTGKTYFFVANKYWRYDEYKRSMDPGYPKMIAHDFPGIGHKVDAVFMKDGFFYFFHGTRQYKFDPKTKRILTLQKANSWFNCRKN
Sequence of MMP-9 (P14780 94-707): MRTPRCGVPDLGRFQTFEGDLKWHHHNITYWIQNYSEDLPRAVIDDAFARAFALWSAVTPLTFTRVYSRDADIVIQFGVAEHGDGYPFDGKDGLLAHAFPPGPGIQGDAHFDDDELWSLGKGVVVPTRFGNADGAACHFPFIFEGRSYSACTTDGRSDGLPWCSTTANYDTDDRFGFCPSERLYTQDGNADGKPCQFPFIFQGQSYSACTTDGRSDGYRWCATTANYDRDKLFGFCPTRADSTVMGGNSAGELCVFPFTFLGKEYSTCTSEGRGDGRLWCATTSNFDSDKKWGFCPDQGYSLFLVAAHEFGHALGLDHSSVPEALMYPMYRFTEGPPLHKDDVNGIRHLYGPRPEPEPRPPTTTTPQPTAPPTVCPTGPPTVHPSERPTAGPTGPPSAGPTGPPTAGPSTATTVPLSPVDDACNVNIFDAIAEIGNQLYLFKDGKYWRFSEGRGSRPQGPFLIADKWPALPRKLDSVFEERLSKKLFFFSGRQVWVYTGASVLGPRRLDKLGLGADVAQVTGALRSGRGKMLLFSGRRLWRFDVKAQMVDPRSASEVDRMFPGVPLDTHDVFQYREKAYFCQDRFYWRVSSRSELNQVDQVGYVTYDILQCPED
Sequence of BaLF (P15917 34-809 limits assumed): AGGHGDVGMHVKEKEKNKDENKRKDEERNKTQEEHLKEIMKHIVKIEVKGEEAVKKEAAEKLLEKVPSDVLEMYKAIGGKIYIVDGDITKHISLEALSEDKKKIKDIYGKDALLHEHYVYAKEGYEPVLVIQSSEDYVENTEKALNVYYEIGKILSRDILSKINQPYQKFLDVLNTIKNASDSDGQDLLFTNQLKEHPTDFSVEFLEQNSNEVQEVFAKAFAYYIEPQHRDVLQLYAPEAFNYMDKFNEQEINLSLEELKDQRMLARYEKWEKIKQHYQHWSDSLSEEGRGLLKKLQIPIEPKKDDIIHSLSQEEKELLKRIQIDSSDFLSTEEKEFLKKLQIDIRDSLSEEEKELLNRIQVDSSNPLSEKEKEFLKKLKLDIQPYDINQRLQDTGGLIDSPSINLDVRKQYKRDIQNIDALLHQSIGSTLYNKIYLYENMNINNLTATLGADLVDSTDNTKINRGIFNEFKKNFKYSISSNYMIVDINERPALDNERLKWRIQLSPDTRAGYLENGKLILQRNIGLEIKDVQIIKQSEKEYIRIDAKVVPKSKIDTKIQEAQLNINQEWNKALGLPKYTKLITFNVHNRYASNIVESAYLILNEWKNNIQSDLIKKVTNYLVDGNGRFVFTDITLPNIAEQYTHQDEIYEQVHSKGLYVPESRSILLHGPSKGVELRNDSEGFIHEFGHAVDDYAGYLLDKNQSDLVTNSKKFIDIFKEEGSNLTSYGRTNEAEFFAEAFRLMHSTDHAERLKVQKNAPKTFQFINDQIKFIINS

SMILES | IC50 (MMP-2) | IC50 (MMP-9) | IC50 (MMP-1) | IC50 (BaLF) | IC50 (BoNT/B LC) | inhibition of BoNT/A LC activity (BoNT/A LC)
O=C(C=Cc1ccc(Cl)cc1Cl)NO [Hydroxamate, N-Hydroxy-2,4-dichlorocinnanamide] | > 100 µM | > 100 µM | > 100 µM | > 100 µM | > 100 µM | 
[Cl-].[Cl-].[Zn+2] [zinc chloride] |  |  |  |  |  | 4–5%

Source: PMC3509773 (The botulinum journal, 2011)
